From US11339171B2, “MDM2 inhibitors” (Gan & Lee Pharmaceuticals, priority 2017, dated 2022) come the findings set out here.

The target in this assay is T1, MDM2 (Homo sapiens, UniProt Q00987).
T1 construct: made in house
The assay is described as follows: Inhibition test of MDM2-P53 (GST-MDM2, Biotin-P53, Anti-GST-Tb, SA-XL665). The following applies: labels are Example numbers; the compounds with S-configuration are meant. The assay is classed as binding. How it is done: Experimental purpose: To determine the inhibitory activities of the compounds of the present invention on MDM2.
The present experiment uses the following assay methods/instruments/reagents:
Buffer: 1×PBS+0.1% BSA+5 mM DTT; MDM2 Buffer: Buffer+1 mM AEBSF
GST-MDM2: The final concentration is 4 nM, and it is required to formulate a 20 nM (5×) solution. A mother liquor is diluted by 3500 folds, wherein the mother liquor is 10-fold diluted first, and then 350-fold diluted.
Anti-GST-Tb: The final concentration is 2×, and a mother liquor is diluted by 50 folds.
MIX: GST-MDM2, Biotin-P53, SA-XL665 and Anti-GST-Tb were mixed according to a ratio of 4:4:5:5.
Sample: Preparation of a sample (10 mM in DMSO) solution: a. 3 μL sample+7 μL DMSO+20 μL DMSO were formulated to give an initial concentration of 1 mM and mixed well; b. in plate 1, twelve 5-fold serial dilutions (sequentially prepared by adding 10 μL of the last sample to 40 μL DMSO) were prepared and mixed well, individually; c. plate 2 was taken, 45 μL of Buffer was added to each well, and 5 μL of dilution at each concentration was taken from plate 1 and added to the corresponding well in plate 2 (the concentration in well 1 was 100 μM), and mixed well.
1. 18 μL of MIX was added to a 384-well plate, and centrifugation was performed at 4500 rpm for 5 min.
2. 2 μL of sample was added correspondingly to each well, the resultant was centrifuged at 25° C. and 4500 rpm for 5 min, and shaked at 25° C. for 90 min on a shaker.
Readings were obtained from the Microplate reader, and data was processed by Graphpad Prism 6.0.

T1 sequence (Q00987 whole entry): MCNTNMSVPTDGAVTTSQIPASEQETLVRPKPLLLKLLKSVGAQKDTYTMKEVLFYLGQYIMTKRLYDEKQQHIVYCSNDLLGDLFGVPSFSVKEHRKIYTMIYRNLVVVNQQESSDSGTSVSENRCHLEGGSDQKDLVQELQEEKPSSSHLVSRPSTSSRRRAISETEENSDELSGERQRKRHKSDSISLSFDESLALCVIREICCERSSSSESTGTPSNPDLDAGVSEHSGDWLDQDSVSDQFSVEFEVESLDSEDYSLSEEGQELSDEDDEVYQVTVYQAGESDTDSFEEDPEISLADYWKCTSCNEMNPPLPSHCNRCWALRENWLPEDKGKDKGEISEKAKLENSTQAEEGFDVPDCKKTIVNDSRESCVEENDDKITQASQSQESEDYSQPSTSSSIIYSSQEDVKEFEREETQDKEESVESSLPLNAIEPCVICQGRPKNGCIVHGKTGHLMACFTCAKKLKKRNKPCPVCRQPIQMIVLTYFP

On to `COc1ccc(-c2nc3c(n2C(C)C)C2(C(=O)Nc4cc(Cl)ccc42)N(c2cc(Cl)c(=O)n(C)c2)C3=O)c(OC)c1` (stereo not drawn) [Example 52, 6-chloro-5′-(5-chloro-1-methyl-6-oxo-1,6-dihydropyridin-3-yl)-2′-(2,4-dimethoxyphenyl)-3′-isopropyl-3′H-spiro[dihydroindole-3,4′-pyrrolo[3,4-d]imidazole]-2,6′(5′H)-dione], for which the “inhibitory effect on MDM2 compared with positive control compound HDM201” value is “better”.

On to `COc1ccccc1-c1nc2c(n1C(C)C)C1(C(=O)Nc3cc(Cl)ccc31)N(c1cc(Cl)c(=O)n(C)c1)C2=O` (stereo not drawn) [Example 53, 6-chloro-5′-(5-chloro-1-methyl-6-oxo-1,6-dihydropyridin-3-yl)-3′-isopropyl-2′-(2-methoxyphenyl)-3′H-spiro[dihydroindole-3,4′-pyrrolo[3,4-d]imidazole]-2,6′(5′H)-dione], for which the “inhibitory effect on MDM2 compared with positive control compound HDM201” value is given as “better”. As to `COc1ccc(C)cc1-c1nc2c(n1C(C)C)C1(C(=O)Nc3cc(Cl)ccc31)N(c1cc(Cl)ccc1C)C2=O` (stereo not drawn) [Example 62, 6-chloro-5′-(5-chloro-2-methylphenyl)-3′-isopropyl-2′-(2-methoxy-5-methylphenyl)-3′H-spiro[dihydroindole-3,4′-pyrrolo[3,4-d]imidazole]-2,6′(5′H)-dione], the “inhibitory effect on MDM2 compared with positive control compound HDM201” value was “better”. As for `COc1ccc(N2C(=O)c3nc(-c4ccccc4OC)n(C(C)C)c3C23C(=O)Nc2cc(Cl)ccc23)cc1Cl` (stereo not drawn) [Example 63, 6-chloro-5′-(3-chloro-4-methoxyphenyl)-3′-isopropyl-2′-(2-methoxyphenyl)-3′H-spiro[dihydroindole-3,4′-pyrrolo[3,4-d]imidazole]-2,6′(5′H)-dione], the entry is “better”; as for `COc1cc(N)ccc1-c1nc2c(n1C(C)C)C1(C(=O)Nc3cc(Cl)ccc31)N(c1cc(Cl)ccc1F)C2=O` (stereo not drawn) [Example 66, 2′-(4-amino-2-methoxyphenyl)-6-chloro-5′-(5-chloro-2-fluorophenyl)-3′-isopropyl-3′H-spiro[dihydroindole-3,4′-pyrrolo[3,4-d]imidazole]-2,6′(5′H)-dione], “better”. To `COc1cc(N)ccc1-c1nc2c(n1C(C)C)C1(C(=O)Nc3cc(Cl)ccc31)N(c1cc(F)cc(Cl)c1)C2=O` (stereo not drawn) [Example 67, 2′-(4-amino-2-methoxyphenyl)-6-chloro-5′-(3-chloro-5-fluorophenyl)-3′-isopropyl-3′H-spiro[dihydroindole-3,4′-pyrrolo[3,4-d]imidazole]-2,6′(5′H)-dione] belongs “better”; to `COc1ccc(CC(=O)N(C)C)cc1-c1nc2c(n1C(C)C)C1(C(=O)Nc3cc(Cl)ccc31)N(c1cc(Cl)ccc1C)C2=O` (stereo not drawn) [Example 70, 2-(3-(6-chloro-5′-(5-chloro-2-methylphenyl)-3′-isopropyl-2,6′-dioxo-5′,6′-dihydro-3′H-spiro[dihydroindole-3,4′-pyrrolo[3,4-d]imidazole]-2′-yl)-4-methoxyphenyl)-N,N-dimethylacetamide], “better”; to `COc1cc(N)ccc1-c1nc2c(n1C(C)C)C1(C(=O)Nc3cc(Cl)ccc31)N(c1ccc(F)c(Cl)c1)C2=O` (stereo not drawn) [Example 73, 2′-(4-amino-2-methoxyphenyl)-6-chloro-5′-(3-chloro-4-fluorophenyl)-3′-isopropyl-3′H-spiro[dihydroindole-3,4′-pyrrolo[3,4-d]imidazole]-2,6′(5′H)-dione], “better”. To `COc1cc(C(N)=O)ccc1-c1nc2c(n1C(C)C)C1(C(=O)Nc3cc(Cl)ccc31)N(c1cc(Cl)ccc1C)C2=O` (stereo not drawn) [Example 77, 4-(6-chloro-5′-(5-chloro-2-methylphenyl)-3′-isopropyl-2,6′-dioxo-5′,6′-dihydro-3′H-spiro[dihydroindole-3,4′-pyrrolo[3,4-d]imidazole]-2′-yl)-3-methoxybenzamide] belongs “better”; to `COc1cccc(OC)c1-c1nc2c(n1C(C)C)C1(C(=O)Nc3cc(Cl)ccc31)N(c1cc(Cl)ccc1C)C2=O` (stereo not drawn) [Example 79, 6-chloro-5′-(5-chloro-2-methylphenyl)-2′-(2,6-dimethoxyphenyl)-3′-isopropyl-3′H-spiro[dihydroindole-3,4′-pyrrolo[3,4-d]imidazole]-2,6′(5′H)-dione], “better”; to `COc1cc(N(C)C)ccc1-c1nc2c(n1C(C)C)C1(C(=O)Nc3cc(Cl)ccc31)N(c1cc(Cl)ccc1F)C2=O` (stereo not drawn) [Example 81, 6-chloro-5′-(5-chloro-2-fluorophenyl)-2′-(4-(dimethylamino)-2-methoxyphenyl)-3′-isopropyl-3′H-spiro[dihydroindole-3,4′-pyrrolo[3,4-d]imidazole]-2,6′(5′H)-dione], “better”.

For `COc1nc(N)ncc1-c1nc2c(n1C(C)C)C1(C(=O)Nc3cc(Cl)ccc31)N(c1cc(Cl)ccc1C)C2=O` (stereo not drawn) [Example 90, 2′-(2-amino-4-methoxypyrimidin-5-yl)-6-chloro-5′-(5-chloro-2-methylphenyl)-3′-isopropyl-3′H-spiro[dihydroindole-3,4′-pyrrolo[3,4-d]imidazole]-2,6′(5′H)-dione], the “inhibitory effect on MDM2 compared with positive control compound HDM201” value was “better”. To `COc1cc(OC(C)C)ncc1-c1nc2c(n1C(C)C)C1(C(=O)Nc3cc(Cl)ccc31)N(c1cccc(Cl)c1)C2=O` (stereo not drawn) [Example 95, 6-chloro-5′-(3-chlorophenyl)-2′-(6-isopropoxy-4-methoxypyridin-3-yl)-3′-isopropyl-3′H-spiro[dihydroindole-3,4′-pyrrolo[3,4-d]imidazole]-2,6′(5′H)-dione] belongs “better”; to `COc1cc(N(C)C)ncc1-c1nc2c(n1C(C)C)C1(C(=O)Nc3cc(Cl)ccc31)N(c1cc(Cl)ccc1C)C2=O` (stereo not drawn) [Example 111, 6-chloro-5′-(5-chloro-2-methylphenyl)-2′-(6-(dimethylamino)-4-methoxypyridin-3-yl)-3′-isopropyl-3′H-spiro[dihydroindole-3,4′-pyrrolo[3,4-d]imidazole]-2,6′(5′H)-dione], “better”. Consider `COc1nc(N(C)C)ncc1-c1nc2c(n1C(C)C)C1(C(=O)Nc3cc(Cl)ccc31)N(c1cccc(Cl)c1)C2=O` (stereo not drawn) [Example 112, 6-chloro-5′-(3-chlorophenyl)-2′-(2-(dimethylamino)-4-methoxypyrimidin-5-yl)-3′-isopropyl-3′ H-spiro[dihydroindole-3,4′-pyrrolo[3,4-d]imidazole]-2,6′ (5′ H)-dione], for which the “inhibitory effect on MDM2 compared with positive control compound HDM201” value is on record as “better”. To `COc1cc(C#N)ccc1-c1nc2c(n1C(C)C)C1(C(=O)Nc3cc(Cl)ccc31)N(c1cccc(Cl)c1)C2=O` (stereo not drawn) [Example 128] belongs “better”. To `COc1cc(OC)c(-c2nc3c(n2C(C)C)C2(C(=O)Nc4cc(Cl)ccc42)N(c2cc(Cl)ccc2F)C3=O)cn1` (stereo not drawn) [Example 133, 6-chloro-5′-(5-chloro-2-fluorophenyl)-2′-(4,6-dimethoxypyridin-3-yl)-3′-isopropyl-3′H-spiro[dihydroindole-3,4′-pyrrolo[3,4-d]imidazole]-2,6′(5′H)-dione] belongs “better”; to `COc1nc(N(C)C)ncc1-c1nc2c(n1C(C)C)C1(C(=O)Nc3cc(Cl)ccc31)N(c1cc(Cl)cnc1C)C2=O` (stereo not drawn) [Example 135, 6-chloro-5′-(5-chloro-2-methylpyridin-3-yl)-2′-(2-(dimethylamino)-4-methoxypyrimidin-5-yl)-3′-isopropyl-3′H-spiro[dihydroindole-3,4′-pyrrolo[3,4-d]imidazole]-2,6′(5′H)-dione], “better”. To `COc1nc(OCCF)ncc1-c1nc2c(n1C(C)C)C1(C(=O)Nc3cc(Cl)ccc31)N(c1cc(Cl)ccc1C)C2=O` (stereo not drawn) [Example 140, 6-chloro-5′-(5-chloro-2-methylphenyl)-2′-(2-(2-fluoroethoxy)-4-methoxypyrimidin-5-yl)-3′-isopropyl-3′H-spiro[dihydroindole-3,4′-pyrrolo[3,4-d]imidazole]-2,6′(5′H)-dione] belongs “better”. On to `COc1cc(C(F)(F)F)ncc1-c1nc2c(n1C(C)C)C1(C(=O)Nc3cc(Cl)ccc31)N(c1cccc(Cl)c1)C2=O` (stereo not drawn) [Example 142, 6-chloro-5′-(3-chlorophenyl)-3′-isopropyl-2′-(4-methoxy-6-(trifluoromethyl)pyridin-3-yl)-3′H-spiro[dihydroindole-3,4′-pyrrolo[3,4-d]imidazole]-2,6′(5′H)-dione], for which the “inhibitory effect on MDM2 compared with positive control compound HDM201” value was “better”. As for `COc1cc(OCCO)ccc1-c1nc2c(n1C(C)C)C1(C(=O)Nc3cc(Cl)ccc31)N(c1cc(Cl)ccc1C)C2=O` (stereo not drawn) [Example 148, 6-chloro-5′-(5-chloro-2-methylphenyl)-2′-(4-(2-hydroxyethoxy)-2-methoxyphenyl)-3′-isopropyl-3′H-spiro[dihydroindole-3,4′-pyrrolo[3,4-d]imidazole]-2,6′(5′H)-dione], the entry is “better”.
